Earlier results on one substance are cited in patent publication US20050244821A1, “Method of identification and quantification of biological molecules and apparatus therefore” (priority 2000, published 2005).

This data set deals with D2.3 antibody. The following applies: hapten and antibody free in solution; competitive ELISA, further by a fluorescence assay; read-out: affinity constant.

In the case of “p-nitrobenzyl phosphonate N-glycylglutatarate [hapten 23.7]”, the Kd is 4 nM.
